Data as given in US20170008888A1 (KYORIN PHARMACEUTICAL CO., LTD., priority 2014, published 2017).
Like-named read-outs stand apart in the source and are kept apart here.

Molecular target: T1, AurA (Homo sapiens, UniProt O14965)
T1 construct: screened for activity against several kinases in Jurkat cells; endogenous in cells; host or cells: Jurkat cell lysate
T1 sequence (O14965 1-403): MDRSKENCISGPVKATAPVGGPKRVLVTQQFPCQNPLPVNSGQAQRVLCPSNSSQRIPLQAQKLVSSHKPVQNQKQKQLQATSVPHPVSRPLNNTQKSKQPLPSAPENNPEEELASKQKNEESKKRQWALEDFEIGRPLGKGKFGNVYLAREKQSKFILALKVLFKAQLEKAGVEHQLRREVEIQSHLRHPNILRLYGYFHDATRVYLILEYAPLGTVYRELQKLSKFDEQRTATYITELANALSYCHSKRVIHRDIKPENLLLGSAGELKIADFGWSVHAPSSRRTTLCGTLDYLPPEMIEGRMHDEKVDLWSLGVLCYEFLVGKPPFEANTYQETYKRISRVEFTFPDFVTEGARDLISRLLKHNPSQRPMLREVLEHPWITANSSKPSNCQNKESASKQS
Experiment: Probe-based (AX9989) kinase profiling in Jurkat lysate: AurA
Type: binding
Conditions: for inhibition at 0.1 µM: screening concentration 0.1 μM
Summary of the method: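 Jurkat lysate (50 mM HEPES pH 7.5, 150 mM NaCl, 0.1% Triton X-100, 20 mM MnCl2) pre-incubated 15 min with compound at room temperature, then labeled with 5 μM acyl phosphate ATP probe AX9989. Tryptic probe-labeled peptides streptavidin-captured and quantified by LC/MS; percent inhibition from decreased fragment intensity versus untreated.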

[1] = screening concentration 1.0 μM, read-out: Kinase inhibition % at indicated screening concentration: AurA
[2] = read-out: Kinase inhibition % at indicated screening concentration: AurA
[3] = screening concentration 1 μM, read-out: AurA Inhibition % at indicated screening concentration

Row | Compound | inhibition at 1 µM [1] | other results
1 | CCOc1cc(C(=O)N2CCN(CCOCCO)CC2)ccc1Nc1cc2c(cn1)N(C)C(=O)c1ccccc1N2C [Compound 6] | ≤ 35% | 
2 | CCOc1cc(C(=O)N2CCCN(C)CC2)ccc1Nc1cc2c(cn1)N(C)C(=O)c1ccccc1N2C [Compound 8] | ≤ 35% | 
3 | CCOc1cc(C(=O)N2CCN(CC3CC3)CC2)ccc1Nc1cc2c(cn1)N(C)C(=O)c1ccccc1N2C [Compound 10] |  | inhibition at 0.1 µM [2]: ≤ 35%
4 | CCOc1cc(C(=O)N2CCC(N3CCCC3)CC2)ccc1Nc1cc2c(cn1)N(C)C(=O)c1ccccc1N2C [Compound 46, 3-(2-Ethoxy-4-(4-(pyrrolidin-1-yl)piperidine-1-carbonyl)phenylamino)-5,11-dimethyl-5H-benzo[e]pyrido[3,4-b][1,4]diazepin-10(11H)-one] | ≤ 35% | 
5 | Cc1cc(CN2CC[C@@H](N3CCCC3)C2)ccc1Nc1cc2c(cn1)N(C)C(=O)c1ccccc1N2C [Compound 49] |  | inhibition at 0.1 µM [2]: ≤ 35%
6 | CCOc1cc(C(N)=O)ccc1Nc1cc2c(cn1)N(C)C(=O)c1ccccc1N2C [Compound 51] |  | inhibition at 0.1 µM [2]: ≤ 35%
7 | CCOc1cc(C(=O)N2CCC(O)CC2)ccc1Nc1cc2c(cn1)N(C)C(=O)c1ccccc1N2C [Compound 52] | ≤ 35% | 
8 | CN1C(=O)c2occc2N(C)c2cc(N[C@H]3CC[C@H](N)CC3)ncc21 [Compound 53] | ≤ 35% | 
9 | CCOc1cc(C(=O)NCCCN(CC)CC)ccc1Nc1cc2c(cn1)N(C)C(=O)c1ccccc1N2C [Compound 54] | ≤ 35% | 
10 | CCOc1cc(C(=O)NCCN(C(C)C)C(C)C)ccc1Nc1cc2c(cn1)N(C)C(=O)c1ccccc1N2C [Compound 55] |  | inhibition at 0.1 µM [2]: ≤ 35%
11 | CCOc1cc(C(=O)N2CC[C@@H](N3CCCCC3)C2)ccc1Nc1cc2c(cn1)N(C)C(=O)c1occc1N2C [Compound 56] |  | inhibition at 0.1 µM [2]: ≤ 35%
12 | CCOc1cc(C(=O)NCC2CC2)ccc1Nc1cc2c(cn1)N(C)C(=O)c1ccccc1N2C [Compound 57] | ≤ 35% | 
13 | CCOc1cc(C(=O)N2CCC(N3CCN(C)CC3)CC2)ccc1Nc1cc2c(cn1)N(C)C(=O)c1ccccc1N2C [Compound 61] | ≤ 35% | 
14 | CCOc1cc(C(=O)N2CCNCC2)ccc1Nc1cc2c(cn1)N(C)C(=O)c1ccccc1N2C [Compound 62] | ≤ 35% | 
15 | CCOc1cc(C(=O)N2CCC(OC)CC2)ccc1Nc1cc2c(cn1)N(C)C(=O)c1ccccc1N2C [Compound 63] | ≤ 35% | 
16 | CN1C(=O)c2ccccc2N(C)c2cc(NC3CCC(C(=O)NC4CCOCC4)CC3)ncc21 (stereo not drawn) [Compound 64] | ≤ 35% | 
17 | CCOc1cc(C(=O)N2CCC(N3CCN(C)CC3)CC2)ccc1Nc1cc2c(cn1)N(C)C(=O)c1occc1N2C [Compound 65] |  | inhibition at 0.1 µM [2]: ≤ 35%
18 | CCOc1cc(C(=O)NCCO)ccc1Nc1cc2c(cn1)N(C)C(=O)c1ccccc1N2C [Compound 66] | ≤ 35% | 
19 | CCOc1cc(C(=O)N2CC[C@@H](N(CC)CC)C2)ccc1Nc1cc2c(cn1)N(C)C(=O)c1occc1N2C [Compound 67] |  | inhibition at 0.1 µM [2]: ≤ 35%
20 | CCOc1cc(C(=O)N[C@@H]2CCCOC2)ccc1Nc1cc2c(cn1)N(C)C(=O)c1ccccc1N2C [Compound 69] | ≤ 35% | 
21 | COc1cc(C(=O)N2CCC(N(C)C)C2)ccc1Nc1cc2c(cn1)N(C)C(=O)c1ccccc1N2C (stereo not drawn) [Compound 70] |  | inhibition at 0.1 µM [2]: ≤ 35%
22 | CCOc1cc(C(=O)N2CCCNCC2)ccc1Nc1cc2c(cn1)N(C)C(=O)c1ccccc1N2C [Compound 71] | ≤ 35% | 
23 | CCOc1cc(C(=O)N2CCC(F)C2)ccc1Nc1cc2c(cn1)N(C)C(=O)c1occc1N2C (stereo not drawn) [Compound 72] |  | inhibition at 0.1 µM [2]: ≤ 35%
24 | COc1cc(NS(C)(=O)=O)ccc1Nc1cc2c(cn1)N(C)C(=O)c1ccccc1N2C [Compound 73] | ≤ 35% | 
25 | CN1C(=O)c2ccccc2N(C)c2cc(N[C@H]3CC[C@H](N4CCCC4)CC3)ncc21 [Compound 74] | ≤ 35% | 
26 | CCOc1cc(C(=O)N2CC[C@H](N(C)C)C2)ccc1Nc1cc2c(cn1)N(C)C(=O)c1ccccc1N2C [Compound 75] | ≤ 35% | 
27 | CCOc1cc(C(=O)NC2CCOCC2)ccc1Nc1cc2c(cn1)N(C)C(=O)c1ccccc1N2C [Compound 80] | ≤ 35% | 

Row | Compound | inhibition at 1 µM [1] | other results
28 | CCOc1cc(C(=O)N2CCNC[C@H]2C)ccc1Nc1cc2c(cn1)N(C)C(=O)c1ccccc1N2C [Compound 82] |  | inhibition at 0.1 µM [2]: ≤ 35%
29 | CCOc1cc(C(=O)NCCOC)ccc1Nc1cc2c(cn1)N(C)C(=O)c1ccccc1N2C [Compound 83] | ≤ 35% | 
30 | CCOc1cc(C(=O)NCCn2ccnc2)ccc1Nc1cc2c(cn1)N(C)C(=O)c1ccccc1N2C [Compound 84] | ≤ 35% | 
31 | CCOc1cc(C(=O)N(C)CCN(C)C)ccc1Nc1cc2c(cn1)N(C)C(=O)c1ccccc1N2C [Compound 88] |  | inhibition at 0.1 µM [2]: ≤ 35%
32 | CCOc1cc(C(=O)N2CCC(N3CCCC3)CC2)ccc1Nc1cc2c(cn1)N(C)C(=O)c1occc1N2C [Compound 91, 6-((2-Ethoxy-4-(4-(pyrrolidin-1-yl)piperidine-1-carbonyl)phenyl)amino)-4,9-dimethyl-4H-furo[3,2-e]pyrido[3,4-b][1,4]diazepin-10(9H)-one] |  | inhibition at 0.1 µM [2]: ≤ 35%
33 | CCOc1cc(C(=O)N2CCCC(O)C2)ccc1Nc1cc2c(cn1)N(C)C(=O)c1ccccc1N2C (stereo not drawn) [Compound 93] | ≤ 35% | 
34 | CCOc1cc(C(=O)N2CCN(C(C)(C)C)CC2)ccc1Nc1cc2c(cn1)N(C)C(=O)c1ccccc1N2C [Compound 94] |  | inhibition at 0.1 µM [2]: ≤ 35%
35 | CCOc1cc(C(=O)N2CCC[C@H](O)C2)ccc1Nc1cc2c(cn1)N(C)C(=O)c1ccccc1N2C [Compound 96] |  | inhibition at 0.1 µM [2]: ≤ 35%
36 | CCOc1cc(C(=O)N[C@H]2CCCOC2)ccc1Nc1cc2c(cn1)N(C)C(=O)c1ccccc1N2C [Compound 100] | ≤ 35% | 
37 | CCOc1cc(C(=O)NCCOCCO)ccc1Nc1cc2c(cn1)N(C)C(=O)c1ccccc1N2C [Compound 101] | ≤ 35% | 
38 | CN1C(=O)c2ccccc2N(C)c2cc(NC3CCOCC3)ncc21 [Compound 102] | ≤ 35% | 
39 | CCOc1cc(C(=O)NCCN(CC)CC)ccc1Nc1cc2c(cn1)N(C)C(=O)c1ccccc1N2C [Compound 103] |  | inhibition at 0.1 µM [2]: ≤ 35%
40 | CCOc1cc(C(=O)NCCN2CCCC2)ccc1Nc1cc2c(cn1)N(C)C(=O)c1ccccc1N2C [Compound 105] | ≤ 35% | 
41 | Cc1cc(CN2CCCC2)ccc1Nc1cc2c(cn1)N(C)C(=O)c1ccccc1N2C [Compound 106, 5,11-dimethyl-3-(2-methyl-4-(pyrrolidin-1-ylmethyl)phenylamino)-5H-benzo[e]pyrido[3,4-b][1,4]diazepin-10(11H)-one] | ≤ 35% | 
42 | CCOc1cc(C(=O)NCCc2ccncc2)ccc1Nc1cc2c(cn1)N(C)C(=O)c1ccccc1N2C [Compound 107] | ≤ 35% | 
43 | CCOc1cc(C(=O)N2CCN(CC)CC2)ccc1Nc1cc2c(cn1)N(C)C(=O)c1ccccc1N2C [Compound 108] | ≤ 35% | 
44 | CN1C(=O)c2ccccc2N(C)c2cc(Nc3ccc(C(=O)N4CC[C@@H](N(C)C)C4)cc3F)ncc21 [Compound 110] |  | inhibition at 10 µM (screening concentration 10.0 μM, read-out: Kinase inhibition % at indicated screening concentration: AurA): 35 to 50%
45 | CCOc1cc(C(=O)N2CCOCC2)ccc1Nc1cc2c(cn1)N(C)C(=O)c1ccccc1N2C [Compound 111] | ≤ 35% | 
46 | CCOc1cc(C(=O)N2CC(N3CCCCC3)C2)ccc1Nc1cc2c(cn1)N(C)C(=O)c1ccccc1N2C [Compound 114] |  | inhibition at 0.1 µM [2]: ≤ 35%
47 | CCOc1cc(C(=O)N2CC[C@@H](N(C)C)C2)ccc1Nc1cc2c(cn1)N(C)C(=O)c1ccccc1N2C [Compound 115] | ≤ 35% | 
48 | CCOc1cc(C(=O)N2CCC(CN3CCOCC3)CC2)ccc1Nc1cc2c(cn1)N(C)C(=O)c1ccccc1N2C [Compound 120] | ≤ 35% | 
49 | CCOc1cc(C(=O)N(CC)CCN(CC)CC)ccc1Nc1cc2c(cn1)N(C)C(=O)c1ccccc1N2C [Compound 122] | ≤ 35% | 
50 | CCOc1cc(C(=O)N2CCC(NC(C)C)C2)ccc1Nc1cc2c(cn1)N(C)C(=O)c1ccccc1N2C (stereo not drawn) [Compound T4] |  | inhibition at 1 µM [3]: ≤ 35%
51 | CCOc1cc(C(=O)N2C[C@H]3CCN[C@H]3C2)ccc1Nc1cc2c(cn1)N(C)C(=O)c1ccccc1N2C [Compound T5] |  | inhibition at 1 µM [3]: ≤ 35%
52 | CCOc1cc(C(=O)N(C)[C@H]2CC[C@H](O)CC2)ccc1Nc1cc2c(cn1)N(C)C(=O)c1ccccc1N2C [Compound T64] |  | inhibition at 1 µM [3]: ≤ 35%
53 | CN1CCC(N2CCN(C(=O)c3ccc(Nc4cc5c(cn4)N(C)C(=O)c4ccccc4N5C)c(F)c3)CC2)CC1 [Compound T70] |  | inhibition at 1 µM [3]: ≤ 35%
54 | CN1CCC(N2CCN(C(=O)c3ccc(Nc4cc5c(cn4)N(C)C(=O)c4ccccc4N5C)c(OC(F)F)c3)CC2)CC1 [Compound T76] |  | inhibition at 1 µM [3]: ≤ 35%
